Test results reported in the NIST ThermoML archive (doi:10.1016/j.fluid.2007.09.002).
Numbers after ± are expanded uncertainties.

Tests used:
[1] = Liquid, Closed cell (Static) method
[2] = excess molar enthalpy (molar enthalpy of mixing); xn = mol fraction of the nth substance listed; settings: 298.15 K, 101.3 kPa, Liquid, Flow calorimetry

Row | Compound | vapor or sublimation pressure ([1]; 263.15 K) | vapor or sublimation pressure ([1]; 273.15 K) | vapor or sublimation pressure ([1]; 283.15 K) | vapor or sublimation pressure ([1]; 293.15 K) | vapor or sublimation pressure ([1]; 298.15 K) | vapor or sublimation pressure ([1]; 303.15 K) | vapor or sublimation pressure ([1]; 313.15 K) | vapor or sublimation pressure ([1]; 323.15 K) | vapor or sublimation pressure ([1]; 333.15 K) | vapor or sublimation pressure ([1]; 343.15 K) | other results
1 | CC#CCCC [2-hexyne] | 1.372 ± 0.056 kPa | 2.56 ± 0.1 kPa | 4.532 ± 0.18 kPa | 7.66 ± 0.31 kPa | 9.804 ± 0.39 kPa | 12.43 ± 0.5 kPa | 19.45 ± 0.78 kPa | 29.46 ± 1.2 kPa | 43.35 ± 1.7 kPa | 62.15 ± 2.5 kPa | 
2 | CCC#CCC [3-hexyne] + CCCCOCCCC |  |  |  |  |  |  |  |  |  |  | excess molar enthalpy ([2]; x1 = 0.1599): 0.00956 ± 0.00239 kcal/mol; excess molar enthalpy ([2]; x1 = 0.2756): 0.0143 ± 0.00239 kcal/mol; excess molar enthalpy ([2]; x1 = 0.3989): 0.0174 ± 0.00239 kcal/mol; excess molar enthalpy ([2]; x1 = 0.496): 0.0184 ± 0.00239 kcal/mol; excess molar enthalpy ([2]; x1 = 0.5781): 0.0182 ± 0.00239 kcal/mol; excess molar enthalpy ([2]; x1 = 0.6579): 0.0163 ± 0.00239 kcal/mol; excess molar enthalpy ([2]; x1 = 0.7475): 0.0136 ± 0.00239 kcal/mol; excess molar enthalpy ([2]; x1 = 0.8783): 0.00837 ± 0.00239 kcal/mol
3 | CC#CCCC [2-hexyne] + CCCCOC |  |  |  |  |  |  |  |  |  |  | excess molar enthalpy ([2]; x1 = 0.1468): -0.0143 ± 0.00239 kcal/mol; excess molar enthalpy ([2]; x1 = 0.3058): -0.0287 ± 0.00239 kcal/mol; excess molar enthalpy ([2]; x1 = 0.4949): -0.039 ± 0.00239 kcal/mol; excess molar enthalpy ([2]; x1 = 0.637): -0.0382 ± 0.00239 kcal/mol; excess molar enthalpy ([2]; x1 = 0.7489): -0.0335 ± 0.00239 kcal/mol; excess molar enthalpy ([2]; x1 = 0.8444): -0.0191 ± 0.00239 kcal/mol
4 | CCC#CCC [3-hexyne] | 1.613 ± 0.065 kPa | 3.001 ± 0.12 kPa | 5.293 ± 0.21 kPa | 8.909 ± 0.36 kPa | 11.38 ± 0.46 kPa | 14.39 ± 0.58 kPa | 22.4 ± 0.9 kPa | 33.77 ± 1.4 kPa | 49.44 ± 2 kPa | 70.52 ± 2.8 kPa | 
5 | CCCCOC [butyl methyl ether] | 3.054 ± 0.062 kPa | 5.436 ± 0.11 kPa | 9.207 ± 0.19 kPa | 14.93 ± 0.3 kPa | 18.73 ± 0.38 kPa | 23.3 ± 0.47 kPa | 35.15 ± 0.71 kPa | 51.45 ± 1 kPa | 73.31 ± 1.5 kPa | 101.96 ± 2 kPa | 
